Results as given in article PMC9655037, “Alternation of Organ-Specific Exposure in LPS-Induced Pneumonia Mice after the Inhalation of Tetrandrine Is Governed by Metabolizing Enzyme Suppression and Lysosomal Trapping” (International Journal of Molecular Sciences, 2022).
Where “and” joins values, the source holds several entries; their conditions need not be identical. Equal entries are not always repeated.

Test: Tissue distribution of TET after a single i.t. administration in normal and LPS-treated mice
Conditions: for Kp / AUC(0-inf) / Cmax / MRT / Tmax / half-life / AUC(0-t): BALB/c, mouse; for Kp: other: intratracheal (i.t.), Kp (AUC in tissue divided by AUC in blood); for Kp / AUC(0-inf) / Cmax / MRT / Tmax / half-life / AUC(0-t) / Kp (AUC in tissue divided by AUC in blood): 15 mg/kg, 15 mg/kg i.t.; for AUC(0-inf) / Cmax / MRT / Tmax / half-life / AUC(0-t): inhaled or intranasal
Experimental: The different tissue distribution characteristics of TET in normal and pneumonia model mice via i.t. delivery were investigated. Thirty BALB/c mice were randomly divided into ten groups (n = 3 for each group). Five groups of mice were intratracheally injected with 15 mg/kg TET (dissolved in 22.5 mg/mL aspartic acid solution) as control groups, and the other five groups received i.t. administration of 15 mg/kg TET 6 h after i.t. injection of 50 μL LPS (5 mg/mL) as model groups. One control group and one model group were sacrificed simultaneously at the set time points of 2, 4, 8, 24, and 144 h after the administration of TET. After a cardiac puncture to obtain blood samples, tissue samples including heart, liver, spleen, lung, kidney, stomach, intestine, and brain were immediately harvested and all the tissues were thoroughly rinsed in ice physiological saline. All the tissue samples were weighed and stored with blood samples at −40 °C for LC-MS/MS analysis.
Pharmacokinetic parameters including t1/2, AUC(0-t), AUC(0-∞), and MRT were calculated using WinNonlin 7.0 (Pharsight, CA) by the non-compartmental model. Initial plasma concentration post i.v. (C0-i.v.) was extrapolated from the first three points of the logarithmic plasma concentration. The area under the blood concentration–time curve from t = 0 to infinity (AUCinf) was estimated using the linear trapezoidal rule. Blood clearance (CL) was calculated as the i.v. dose divided by AUCinf. Apparent steady-state distribution volume (Vss) was determined by the clearance multiplied by mean residence time. The distribution volume in the elimination phase (Vz) was determined by the clearance divided by the first-order rate constant of the terminal elimination phase (λz). The tissue partition ratio (Kp) of each tissue was calculated as Equation (1). (1) Kp=AUC(0−∞,tissue)/AUC(0−∞,plasma)

What does the source list for COc1ccc2cc1Oc1ccc(cc1)C[C@H]1c3cc(c(OC)cc3CCN1C)Oc1c(OC)c(OC)cc3c1[C@H](C2)N(C)CC3 [TET, Tetrandrine]?
Kp (adipose / blood, LPS-treated mice, adipose): 2.6; Kp (adipose / blood, normal mice, adipose): 2.4; AUC(0-inf) (adipose, LPS-treated mice): 816 ± 429 µg·h/mL; AUC(0-inf) (adipose, normal mice): 501 ± 88.3 µg·h/mL; Cmax (adipose, LPS-treated mice): 5920 ± 1410 ng/mL; Cmax (adipose, normal mice): 7380 ± 1790 ng/mL; MRT (adipose, LPS-treated mice): 102 ± 57.9 h; MRT (adipose, normal mice): 67.7 ± 37.1 h; Tmax (adipose, LPS-treated mice): 18.7 ± 9.24 h; Tmax (adipose, normal mice): 5.33 ± 2.31 h; half-life (adipose, t1/2, LPS-treated mice): 75.2 ± 35.2 h; half-life (adipose, t1/2, normal mice): 54 ± 21.5 h; AUC(0-inf) (blood, LPS-treated mice): 326 ± 12.9 µg·h/mL; AUC(0-inf) (blood, normal mice): 249 ± 16.4 µg·h/mL; Cmax (blood, LPS-treated mice): 1940 ± 225 ng/mL; Cmax (blood, normal mice): 2670 ± 50 ng/mL; MRT (blood, LPS-treated mice): 133 ± 26.1 h; MRT (blood, normal mice): 111 ± 23.1 h; Tmax (blood, LPS-treated mice): 24 h; Tmax (blood, normal mice): 3.33 ± 1.15 h; half-life (blood, t1/2, LPS-treated mice): 95.5 ± 17.6 h; half-life (blood, t1/2, normal mice): 83.2 ± 15.4 h; Kp (blood, LPS-treated mice, blood): 1; Kp (blood, normal mice, blood): 1; Kp (brain / blood, LPS-treated mice, brain): 0.6; Kp (brain / blood, normal mice, brain): 1; AUC(0-inf) (brain, LPS-treated mice): 179 ± 38.4 µg·h/mL; AUC(0-inf) (brain, normal mice): 190 ± 51.4 µg·h/mL; Cmax (brain, LPS-treated mice): 6430 ± 3790 ng/mL; Cmax (brain, normal mice): 10400 ± 9530 ng/mL; MRT (brain, LPS-treated mice): 112 ± 35.4 h; MRT (brain, normal mice): 56.8 ± 26.5 h; Tmax (brain, LPS-treated mice): 5.33 ± 2.31 h; Tmax (brain, normal mice): 2 h; half-life (brain, t1/2, LPS-treated mice): 92.6 ± 27.2 h; half-life (brain, t1/2, normal mice): 51.6 ± 17.2 h; Kp (heart / blood, LPS-treated mice, heart): 4.3; Kp (heart / blood, normal mice, heart): 5.1; AUC(0-t) (heart, LPS-treated mice): 940 ± 381 µg·h/mL; AUC(0-t) (heart, normal mice): 880 ± 22.2 µg·h/mL; AUC(0-inf) (heart, LPS-treated mice): 4090 ± 3400 µg·h/mL; AUC(0-inf) (heart, normal mice): 1410 ± 21.5 µg·h/mL; Cmax (heart, LPS-treated mice): 10800 ± 4010 ng/mL; Cmax (heart, normal mice): 14200 ± 3160 ng/mL; MRT (heart, LPS-treated mice): 643 ± 376 h; MRT (heart, normal mice): 137 ± 0.09 h; Tmax (heart, LPS-treated mice): 4 h; Tmax (heart, normal mice): 2.67 ± 1.15 h; half-life (heart, t1/2, LPS-treated mice): 449 ± 259 h; half-life (heart, t1/2, normal mice): 96.8 ± 6.46 h; AUC(0-t) (in vivo, LPS-treated mice, adipose): 566 ± 163 µg·h/mL; AUC(0-t) (in vivo, LPS-treated mice, blood): 219 ± 17.7 µg·h/mL; AUC(0-t) (in vivo, LPS-treated mice, brain): 129 ± 46.2 µg·h/mL; AUC(0-t) (in vivo, LPS-treated mice, kidney): 7940 ± 1170 µg·h/mL; AUC(0-t) (in vivo, LPS-treated mice, liver): 5890 ± 178 µg·h/mL; AUC(0-t) (in vivo, LPS-treated mice, muscle): 483 ± 89.5 µg·h/mL; AUC(0-t) (in vivo, LPS-treated mice, spleen): 9420 ± 942 µg·h/mL; AUC(0-t) (in vivo, normal mice, adipose): 421 ± 94.4 µg·h/mL; AUC(0-t) (in vivo, normal mice, blood): 175 ± 12.3 µg·h/mL; AUC(0-t) (in vivo, normal mice, brain): 168 ± 60.6 µg·h/mL; AUC(0-t) (in vivo, normal mice, intestine): 1460 ± 134 µg·h/mL; AUC(0-t) (in vivo, normal mice, kidney): 6510 ± 691 µg·h/mL; AUC(0-t) (in vivo, normal mice, liver): 4860 ± 334 µg·h/mL; AUC(0-t) (in vivo, normal mice, lung): 4310 ± 1000 µg·h/mL; AUC(0-t) (in vivo, normal mice, muscle): 359 ± 79.8 µg·h/mL; AUC(0-t) (in vivo, normal mice, spleen): 7940 ± 665 µg·h/mL; AUC(0-t) (in vivo, normal mice, stomach): 929 ± 163 µg·h/mL; Kp (intestine / blood, normal mice, intestine): 8.3; AUC(0-t) (intestine, LPS-treated mice): 2390 ± 196 µg·h/mL; AUC(0-inf) (intestine, LPS-treated mice): 2590 ± 271 µg·h/mL; AUC(0-inf) (intestine, normal mice): 1630 ± 130 µg·h/mL; Cmax (intestine, LPS-treated mice): 76500 ± 10900 ng/mL; Cmax (intestine, normal mice): 46700 ± 25900 ng/mL; MRT (intestine, LPS-treated mice): 42.4 ± 6.38 h; MRT (intestine, normal mice): 50.5 ± 2.31 h; Tmax (intestine, LPS-treated mice): 2 h; Tmax (intestine, normal mice): 4 h; half-life (intestine, t1/2, LPS-treated mice): 41.7 ± 4.93 h; half-life (intestine, t1/2, normal mice): 44.7 ± 1.94 h; Kp (intestine, LPS-treated mice, intestine): 11 ± 1.35; AUC(0-inf) (kidney, LPS-treated mice): 11000 µg·h/mL; AUC(0-inf) (kidney, normal mice): 8160 ± 422 µg·h/mL; Cmax (kidney, LPS-treated mice): 112000 ± 11500 ng/mL; Cmax (kidney, normal mice): 107000 ± 16600 ng/mL; MRT (kidney, LPS-treated mice): 101 ± 30 h; MRT (kidney, normal mice): 80.1 ± 16.6 h; Tmax (kidney, LPS-treated mice): 5.33 ± 2.31 h; Tmax (kidney, normal mice): 3.33 ± 1.15 h; half-life (kidney, t1/2, LPS-treated mice): 77.8 ± 18.1 h; half-life (kidney, t1/2, normal mice): 63.4 ± 8.09 h; Kp (kidney, LPS-treated mice, kidney): 36.2 ± 3.83; Kp (kidney, normal mice, kidney): 37.5 ± 5.7; AUC(0-inf) (liver, LPS-treated mice): 7430 ± 632 µg·h/mL; AUC(0-inf) (liver, normal mice): 5480 ± 237 µg·h/mL; Cmax (liver, LPS-treated mice): 76300 ± 7020 ng/mL; Cmax (liver, normal mice): 83300 ± 9290 ng/mL; MRT (liver, LPS-treated mice): 82.1 ± 15.6 h; MRT (liver, normal mice): 53.9 ± 8.29 h; Tmax (liver, LPS-treated mice): 3.33 ± 1.15 h; Tmax (liver, normal mice): 4 h; half-life (liver, t1/2, LPS-treated mice): 69.3 ± 14.8 h; half-life (liver, t1/2, normal mice): 47.5 ± 5.47 h; Kp (liver, LPS-treated mice, liver): 27 ± 1.72; Kp (liver, normal mice, liver): 28 ± 3.49; AUC(0-t) (lung, LPS-treated mice): 10000 µg·h/mL; AUC(0-inf) (lung, normal mice): 5300 ± 721 µg·h/mL; Cmax (lung, LPS-treated mice): ≥ 96200 ng/mL; Cmax (lung, normal mice): 60300 ± 3210 ng/mL; MRT (lung, normal mice): 78.3 ± 24.5 h; Tmax (lung, LPS-treated mice): ≥ 144 h; Tmax (lung, normal mice): 13.3 ± 9.24 h; half-life (lung, t1/2, normal mice): 65.1 ± 18.3 h; Kp (lung, LPS-treated mice, lung): 45.8 ± 6.49; Kp (lung, normal mice, lung): 24.7 ± 6.06; Kp (muscle / blood, normal mice, muscle): 2; AUC(0-inf) (muscle, LPS-treated mice): 674 ± 240 µg·h/mL; AUC(0-inf) (muscle, normal mice): 410 ± 80.1 µg·h/mL; Cmax (muscle, LPS-treated mice): 7510 ± 2110 ng/mL; Cmax (muscle, normal mice): 6120 ± 440 ng/mL; MRT (muscle, LPS-treated mice): 101 ± 44.4 h; MRT (muscle, normal mice): 57.7 ± 7.81 h; Tmax (muscle, LPS-treated mice): 6.67 ± 2.31 h; Tmax (muscle, normal mice): 4 ± 3.16 h; half-life (muscle, t1/2, LPS-treated mice): 78.8 ± 31.3 h; half-life (muscle, t1/2, normal mice): 49.2 ± 4.06 h; Kp (muscle, LPS-treated mice, muscle): 2.2 ± 0.31; AUC(0-inf) (spleen, LPS-treated mice): 16000 µg·h/mL; AUC(0-inf) (spleen, normal mice): 11300 µg·h/mL; Cmax (spleen, LPS-treated mice): 89700 ± 10700 ng/mL; Cmax (spleen, normal mice): 89700 ± 7090 ng/mL; MRT (spleen, LPS-treated mice): 157 ± 29.5 h; MRT (spleen, normal mice): 112 ± 34.7 h; Tmax (spleen, LPS-treated mice): 17.3 ± 11.5 h; Tmax (spleen, normal mice): 12 ± 10.6 h; half-life (spleen, t1/2, LPS-treated mice): 111 ± 18.3 h; half-life (spleen, t1/2, normal mice): 83.8 ± 22.7 h; Kp (spleen, LPS-treated mice, spleen): 43.3 ± 6.88; Kp (spleen, normal mice, spleen): 45.7 ± 6.62; Kp (stomach / blood, LPS-treated mice, stomach): 6.1; Kp (stomach / blood, normal mice, stomach): 5.3; AUC(0-t) (stomach, LPS-treated mice): 1340 ± 192 µg·h/mL; AUC(0-inf) (stomach, LPS-treated mice): 1640 ± 323 µg·h/mL; AUC(0-inf) (stomach, normal mice): 1120 ± 207 µg·h/mL; Cmax (stomach, LPS-treated mice): 27200 ± 9320 ng/mL; Cmax (stomach, normal mice): 22300 ± 12400 ng/mL; MRT (stomach, LPS-treated mice): 73.3 ± 17.7 h; MRT (stomach, normal mice): 70 ± 14 h; Tmax (stomach, LPS-treated mice): 3.33 ± 1.15 h; Tmax (stomach, normal mice): 4.67 ± 3.06 h; half-life (stomach, t1/2, LPS-treated mice): 61.4 ± 13 h; half-life (stomach, t1/2, normal mice): 64 ± 16.5 h; Kp (AUC in tissue divided by AUC in blood) (LPS-treated mice, adipose): 2.57 ± 0.62; Kp (AUC in tissue divided by AUC in blood) (LPS-treated mice, brain): 0.59 ± 0.17; Kp (AUC in tissue divided by AUC in blood) (LPS-treated mice, heart): 4.27 ± 1.59; Kp (AUC in tissue divided by AUC in blood) (LPS-treated mice, stomach): 6.13 ± 0.87; lung AUC ratio, acutely inflamed vs normal mice (TET inhalation (i.t.) administration): 2.32; increase in systemic blood exposure (blood AUC ratio), LPS group vs normal/saline group (i.t. route): ~ 1.25 fold and 1.25 fold; Kp (AUC in tissue divided by AUC in blood) (normal mice, adipose): 2.39 ± 0.40; Kp (AUC in tissue divided by AUC in blood) (normal mice, brain): 0.97 ± 0.39; Kp (AUC in tissue divided by AUC in blood) (normal mice, heart): 5.05 ± 0.38; Kp (AUC in tissue divided by AUC in blood) (normal mice, intestine): 8.35 ± 0.67; Kp (AUC in tissue divided by AUC in blood) (normal mice, muscle): 2.04 ± 0.38; Kp (AUC in tissue divided by AUC in blood) (normal mice, stomach): 5.29 ± 0.66
